Experimental findings from patent US20100286145A1, “ISOPHTHALAMIDE DERIVATIVES INHIBITING BETA-SECRETASE ACTIVITY” (CoMentis, Inc., priority 2007, published 2010) are described below.

A word on the IC50: it is the concentration that inhibits the measured activity by half.

The nature of series [1]: Brain pharmacokinetic analysis / brain penetration in rats, i.v. bolus. The class given is in vivo. The note with it: male, Sprague-Dawley, rat, in vivo, iv, 10 mg/kg. The source says:
Quantitative analysis was used to determine the concentration of a test inhibitor, N1-((2S,3R)-4-((5-(2-fluoropropan-2-yl)pyridin-3-yl)methylamino)-3-hydroxy-1-phenylbutan-2-yl)-N3-methyl-N3-((4-methylthiazol-2-yl)methyl)isophthalamide, in biological tissues. The test inhibitor was extracted from a variety of biological samples followed by its selective identification and quantification from a standard curve prepared in the same extracted biological matrix. Briefly, this extraction is accomplished through a simple protein precipitation technique performed on collected plasma. The resultant extractions are then quantified using the LC/MS protocol as detailed herein.
Quantitative analysis was performed through LC/MS analysis. The system was composed of an Eksigent Express LC 100 microflow HPLC system, coupled with an Eksigent CXP C-8AR 0.3*50 mm, or other suitable column, and a Thermo TSQuantum Classic triple quadrupole mass spectrometer running in positive ion, SRM mode. The HPLC buffers were 99.5% H2O, 0.5% formic acid (buffer A) and 99.5% acetonitrile, 0.5% formic acid (buffer B). Typically, a 10 μl aliquot was injected onto the column followed by a 1.5 minute chromatographic analysis. This analysis was conducted at a 20 μl/min flow rate, and composed of a gradient from 15% B to 90% B followed by a 98% B flush to facilitate compound separation and quantitation. Each sample was analyzed in duplicate, with QC, and system blank samples run after every sample set. The column effluent was analyzed in real time by MS/MS to allow the positive identification and quantification of the test inhibitor by compound fingerprint analysis. This was accomplished by allowing only species of 586.3 Da to pass through the first quadrupole, followed by collision induced decay in quadrupole two and scanning analysis of selected daughter ions specific to the test compound in quadrupole three. The collected data was analyzed using the LCQuan software package from Thermo Electron, to determine the levels of the test compound in the samples.
Male Sprague-Dawley Rats (200-400 g) were obtained from Taconic Farms (Hudson, N.Y.) with a pre-implanted jugular vein cannula (JVC) for blood sampling. A solution (5 mg/mL, free base equivalents) of the test inhibitor, N1-((2S,3R)-4-((5-(2-fluoropropan-2-yl)pyridin-3-yl)methylamino)-3-hydroxy-1-phenylbutan-2-yl)-N3-methyl-N3-((4-methylthiazol-2-yl)methyl)isophthalamide mono-citrate salt, was prepared freshly in 35% hydroxypropyl-β-cyclodextrin (HPBCD). Intravenous bolus injection was conducted using a 25 gauge needle via the tail vein. Animals were supplied with water and a commercial rodent diet ad libitum prior to and during the study.
Blood samples (˜100 μl at each time point) for plasma pharmacokinetic (PK) analysis were collected from the JVC cannula into lithium-heparin tubes at 2 min, 5 min, 15 min, 30 min, 45 min, 1 hr, 2 hr, 4 hr, 6 hr and 24 hr post-dose (Group A in Table 2). For compartmental PK analysis, blood and brain were collected from animals in Group B (Table 2) at 15 min, 1 hr, 2 hr, 4 hr, and 6 hr post-dose, with three rats assigned to each time point. Animals were deeply anesthetized with isoflurane and blood collected by cardiocentesis. Plasma separated by centrifugation at 6000 rpm×10 min. Brain hemispheres were subsequently harvested and snap frozen in liquid nitrogen. Plasma and brain samples were subsequently stored at −70° C.
Bioanalysis of the test inhibitor from plasma and brain extracts was performed according to standard procedures. Briefly, 20 μl of plasma was extracted with 100 μl of acetonitrile using a 96-well Solvinert filter plate (Millipore). Samples were subjected to LC/MS/MS analysis using an Eksigent Express LC 100 microflow HPLC system, coupled with an Eksigent CXP C-18AR 0.3*50 mm column, and a Thermo TSQuantum Classic triple quadrupole mass spectrometer running in positive ion, SRM mode. […]

The next series deals with memapsin 2 (Homo sapiens, UniProt P56817). In words: Inhibition of memapsin 2 beta-secretase activity (fluorogenic substrate FS-2). The class given is biochemical. As to conditions: memapsin 2, pH 4, 37° C., 20 minutes pre-incubation; read-out: M2Ki. In a few lines:
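Memapsin 2 pre-incubated 20 min with compound at pH 4, 37° C, then FS-2 substrate (MCA-SEVNLDAEFK-DNP, APP Swedish cleavage site) added. Rate of fluorescence increase compared with uninhibited controls, fitted to a tight-binding inhibition model.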

A further series concerns the target cathepsin D (Homo sapiens, UniProt P07339). In words: Inhibition of cathepsin D activity (substrate peptide ELDLAVEFWHDR, MALDI-TOF). The class given is biochemical. The note with it: read-out: CDKi.
For a further series, the target named is T1, memapsin 1 (Homo sapiens, UniProt Q9Y5Z0).
T1 sequence (Q9Y5Z0 63-518): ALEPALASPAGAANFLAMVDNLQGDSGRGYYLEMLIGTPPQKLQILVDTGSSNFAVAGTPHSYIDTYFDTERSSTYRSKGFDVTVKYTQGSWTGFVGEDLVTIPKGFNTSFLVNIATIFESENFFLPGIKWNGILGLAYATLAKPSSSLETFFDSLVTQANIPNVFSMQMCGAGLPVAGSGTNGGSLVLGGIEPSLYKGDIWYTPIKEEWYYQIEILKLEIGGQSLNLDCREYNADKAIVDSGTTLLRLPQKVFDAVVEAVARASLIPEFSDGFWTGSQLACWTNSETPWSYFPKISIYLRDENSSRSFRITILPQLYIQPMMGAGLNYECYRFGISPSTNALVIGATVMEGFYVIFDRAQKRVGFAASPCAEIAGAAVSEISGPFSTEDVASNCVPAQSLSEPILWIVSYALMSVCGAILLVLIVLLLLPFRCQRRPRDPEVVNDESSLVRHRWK
In words: Inhibition of memapsin 1 beta-secretase activity (substrate peptide ELDLAVEFWHDR, MALDI-TOF). The class given is biochemical. The note with it: read-out: M1Ki.

Series [2] has as its system Aβ production in Chinese hamster ovary cells that over-express human APP695 with the London and Swedish mutations. The series is described as follows: Cellular Aβ IC50 determination (Aβ40 sandwich ELISA). It is filed as cell-based. The note with it: Cricetulus griseus; cellular Aβ production; read-out: IC50. In outline: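 CHO cells overexpressing human APP695 with London and Swedish mutations, seeded at 10% confluency, treated with compounds up to about 4 μM final (0.4% DMSO). Secreted Aβ40 measured by sandwich ELISA relative to control and fitted to a 4-parameter IC50 model.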
(In general: ELISA stands for enzyme-linked immunosorbent assay.)

Sequence of memapsin 2 (P56817 46-501): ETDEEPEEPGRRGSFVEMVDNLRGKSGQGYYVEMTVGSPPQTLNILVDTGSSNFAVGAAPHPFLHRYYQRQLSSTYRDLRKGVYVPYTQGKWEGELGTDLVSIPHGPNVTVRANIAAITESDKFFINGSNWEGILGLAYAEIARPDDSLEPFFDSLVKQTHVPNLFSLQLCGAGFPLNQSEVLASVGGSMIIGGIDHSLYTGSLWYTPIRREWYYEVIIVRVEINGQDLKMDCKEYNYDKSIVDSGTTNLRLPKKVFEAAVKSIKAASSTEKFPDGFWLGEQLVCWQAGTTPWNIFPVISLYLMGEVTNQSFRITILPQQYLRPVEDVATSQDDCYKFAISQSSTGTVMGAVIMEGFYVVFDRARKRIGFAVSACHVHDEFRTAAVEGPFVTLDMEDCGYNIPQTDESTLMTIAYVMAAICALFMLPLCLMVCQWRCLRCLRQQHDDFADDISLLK
Sequence of cathepsin D (P07339 65-412, species assumed): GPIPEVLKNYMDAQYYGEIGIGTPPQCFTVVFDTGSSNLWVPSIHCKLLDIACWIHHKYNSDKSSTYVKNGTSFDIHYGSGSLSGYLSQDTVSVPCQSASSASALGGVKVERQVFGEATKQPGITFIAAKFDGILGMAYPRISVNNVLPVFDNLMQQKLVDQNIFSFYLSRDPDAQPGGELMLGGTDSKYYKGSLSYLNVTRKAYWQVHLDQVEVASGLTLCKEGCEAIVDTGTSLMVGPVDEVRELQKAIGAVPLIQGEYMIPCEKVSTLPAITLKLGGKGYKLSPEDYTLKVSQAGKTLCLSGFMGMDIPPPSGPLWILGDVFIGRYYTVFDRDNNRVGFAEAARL

As to `Cc1csc(CN(C)C(=O)c2cccc(C(=O)N[C@@H](Cc3ccccc3)[C@H](O)CNCc3cncc(C(C)(C)F)c3)c2)n1` [N1-((2S,3R)-4-((5-(2-fluoropropan-2-yl)pyridin-3-yl)methylam] [N1-((2S,3R)-4-((5-(2-fluoropropan-2-yl)pyridin-3-yl)methylamino)-3-hydroxy-1-phenylbutan-2-yl)-N3-methyl-N3-((4-methylthiazol-2-yl)methyl)isophthalamide], in series [1], the “Penetration (%), brain relative to plasma AUC24 hr” value was determined as 47%.

In the case of `Cc1csc(CN(C)C(=O)c2cccc(C(=O)N[C@@H](Cc3ccccc3)[C@H](O)CNCc3ccnc(C(C)C)c3)c2)n1` [Compound 33, N1-((2S,3R)-3-hydroxy-4-((2-isopropylpyridin-4-yl)methylamino)-1-phenylbutan-2-yl)-N3-methyl-N3-((4-methylthiazol-2-yl)methyl)isophthalamide], the values for the Ki on memapsin 2, on cathepsin D and at memapsin 1 were less than 300 nM, less than 300 nM and 301 to 500 nM, respectively. For the same molecule, in series [2], the half-inhibitory concentration (IC50) is less than 1000 nM.

Regarding `C[C@@H](NC(=O)c1cc(C(=O)N[C@@H](Cc2ccccc2)[C@H](O)CNCc2cccc(O)c2)cc(N(C)S(C)(=O)=O)c1)c1ccccc1` [Compound 71, N1-((2S,3R)-3-hydroxy-4-(3-hydroxybenzylamino)-1-phenylbutan-2-yl)-5-(N-methylmethylsulfonamido)-N3-((R)-1-phenylethyl)isophthalamide], the Ki at memapsin 2 is less than 300 nM; at cathepsin D it was greater than 501 nM; on memapsin 1, greater than 501 nM. Further, the IC50 in series [2] is less than 1000 nM.

For `COc1cccc(CNC[C@@H](O)[C@H](Cc2ccccc2)NC(=O)c2cc(C(=O)N(C)Cc3nc(C)cs3)cc(C3=NCCO3)c2)c1` [Compound 46, 5-(4,5-dihydrooxazol-2-yl)-N1-((2S,3R)-3-hydroxy-4-(3-methoxybenzylamino)-1-phenylbutan-2-yl)-N3-methyl-N3-((4-methylthiazol-2-yl)methyl)isophthalamide], the Ki at memapsin 2 was less than 300 nM; at cathepsin D it was 301 to 500 nM; on memapsin 1, greater than 501 nM. For the same molecule, the IC50 in series [2] was less than 1000 nM.

Regarding `C[C@@H](NC(=O)c1cc(C(=O)N[C@@H](Cc2ccccc2)[C@H](O)CNCc2cccc(I)c2)cc(N(C)S(C)(=O)=O)c1)c1ccccc1` [Compound 88, N1-((2S,3R)-3-hydroxy-4-(3-iodobenzylamino)-1-phenylbutan-2-yl)-5-(N-methylmethylsulfonamido)-N3-((R)-1-phenylethyl)isophthalamide], the Ki on memapsin 2, on cathepsin D and at memapsin 1 was less than 300 nM throughout. Besides, the concentration for half-maximal inhibition (IC50) in series [2] was less than 1000 nM.

As for `C[C@@H](NC(=O)c1cc(C(=O)N[C@@H](Cc2ccccc2)[C@H](O)CNCc2cncc(C(C)(C)F)c2)cc(N(C)S(C)(=O)=O)c1)c1ccccc1` [Compound 89, N1-((2S,3R)-4-((5-(2-fluoropropan-2-yl)pyridin-3-yl)methylamino)-3-hydroxy-1-phenylbutan-2-yl)-5-(N-methylmethylsulfonamido)-N3-((R)-1-phenylethyl)isophthalamide], the Ki at memapsin 2, on cathepsin D and at memapsin 1 was less than 300 nM each time. Besides, the IC50 in series [2] was less than 1000 nM.

For `COc1cc(CNC[C@@H](O)[C@H](Cc2ccccc2)NC(=O)c2cccc(C(=O)N(C)Cc3nc(C)cs3)c2)cc(OC)c1` [Compound 8, N1-((2S,3R)-4-(3,5-dimethoxybenzylamino)-3-hydroxy-1-phenylbutan-2-yl)-N3-methyl-N3-((4-methylthiazol-2-yl)methyl)isophthalamide], the Ki on memapsin 2 is less than 300 nM; at cathepsin D, less than 300 nM; at memapsin 1, 301 to 500 nM. Further, the half-inhibitory concentration (IC50) in series [2] is less than 1000 nM.

`Cc1cc(C(=O)N[C@@H](Cc2ccccc2)[C@H](O)CNCc2cncc(C(C)C)c2)cc(C(=O)N(C)Cc2nc(C)cs2)c1` [Compound 32, N1-((2S,3R)-3-hydroxy-4-((5-isopropylpyridin-3-yl)methylamino)-1-phenylbutan-2-yl)-N3,5-dimethyl-N3-((4-methylthiazol-2-yl)methyl)isophthalamide]: the Ki on memapsin 2, on cathepsin D and at memapsin 1 was less than 300 nM each time. The IC50 in series [2] is less than 1000 nM.
